Assay results: ChEMBL document CHEMBL4392854, “Discovery, synthesis, biological evaluation and molecular docking study of (R)-5-methylmellein and its analogs as selective monoamine oxidase A inhibitors” (Bioorg Med Chem, 2019); call rule not given here
pIC50: −log10 of the molar value.

Experiments:
Homo sapiens = species: Homo sapiens; experiment: Selectivity index, ratio of IC50 for human recombinant MAOB to IC50 for human recombinant MAOA
[1] = biological target: T1, Amine oxidase [flavin-containing] A (Homo sapiens, UniProt P21397); experiment: Inhibition of human recombinant MAOA using kynuramine as substrate incubated for 10 mins by UPLC-ESI-MS/MS analysis
T1 sequence (P21397 whole entry): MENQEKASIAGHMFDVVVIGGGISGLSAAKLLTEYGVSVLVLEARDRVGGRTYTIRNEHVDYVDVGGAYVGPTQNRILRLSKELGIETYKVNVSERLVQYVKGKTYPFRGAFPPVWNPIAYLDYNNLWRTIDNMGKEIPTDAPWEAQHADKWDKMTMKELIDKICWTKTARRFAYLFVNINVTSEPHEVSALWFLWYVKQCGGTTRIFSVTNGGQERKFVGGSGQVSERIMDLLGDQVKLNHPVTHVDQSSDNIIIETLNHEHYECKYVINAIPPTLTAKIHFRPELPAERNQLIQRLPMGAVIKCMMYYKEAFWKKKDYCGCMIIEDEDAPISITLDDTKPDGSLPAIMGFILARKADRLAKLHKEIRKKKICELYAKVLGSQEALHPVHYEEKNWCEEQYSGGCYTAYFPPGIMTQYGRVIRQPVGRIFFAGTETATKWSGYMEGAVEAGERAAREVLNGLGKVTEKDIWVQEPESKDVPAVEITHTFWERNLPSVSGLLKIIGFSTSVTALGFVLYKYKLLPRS

[2] = biological target: T2, Amine oxidase [flavin-containing] B (Homo sapiens, UniProt P27338); experiment: Inhibition of human recombinant MAOB using kynuramine as substrate incubated for 10 mins by UPLC-ESI-MS/MS analysis
T2 sequence (P27338 whole entry): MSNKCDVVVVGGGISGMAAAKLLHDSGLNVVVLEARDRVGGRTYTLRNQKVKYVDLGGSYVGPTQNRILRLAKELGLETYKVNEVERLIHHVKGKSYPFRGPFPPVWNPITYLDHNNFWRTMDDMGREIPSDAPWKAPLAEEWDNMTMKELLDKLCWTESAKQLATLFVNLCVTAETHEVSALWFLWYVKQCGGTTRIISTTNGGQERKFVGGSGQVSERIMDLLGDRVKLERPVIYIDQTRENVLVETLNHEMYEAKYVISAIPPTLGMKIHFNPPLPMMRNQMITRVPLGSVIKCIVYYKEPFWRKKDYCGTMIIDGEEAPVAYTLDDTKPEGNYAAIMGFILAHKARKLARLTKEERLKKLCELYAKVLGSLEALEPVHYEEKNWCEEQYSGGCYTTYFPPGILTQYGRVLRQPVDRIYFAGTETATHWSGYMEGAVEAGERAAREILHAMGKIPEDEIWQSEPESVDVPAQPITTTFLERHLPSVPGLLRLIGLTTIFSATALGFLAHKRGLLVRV

[3] = biological target: T1, Amine oxidase [flavin-containing] A; experiment: Inhibition of human recombinant MAOA using kynuramine as substrate incubated for 10 mins by UPLC-ESI-MS/MS analysis based Eadie-Hofstee plot analysis
[4] = biological target: T1, Amine oxidase [flavin-containing] A; experiment: Inhibition of human recombinant MAOA using kynuramine as substrate incubated for 10 mins by UPLC-ESI-MS/MS analysis based Michaelis-Menten plot kinetic analysis
[5] = biological target: T1, Amine oxidase [flavin-containing] A; experiment: Tight-binding competitive inhibition of human recombinant MAOA using kynuramine as substrate incubated for 10 mins by UPLC-ESI-MS/MS analysis based Lineweaver-Burk plot kinetic analysis
Monoamine oxidase = biological target: T3, Monoamine oxidase (Mus musculus, UniProt Q8BW75+Q64133); experiment: Inhibition of mouse brain monoamine oxidase
T3 sequence (Q8BW75 whole entry): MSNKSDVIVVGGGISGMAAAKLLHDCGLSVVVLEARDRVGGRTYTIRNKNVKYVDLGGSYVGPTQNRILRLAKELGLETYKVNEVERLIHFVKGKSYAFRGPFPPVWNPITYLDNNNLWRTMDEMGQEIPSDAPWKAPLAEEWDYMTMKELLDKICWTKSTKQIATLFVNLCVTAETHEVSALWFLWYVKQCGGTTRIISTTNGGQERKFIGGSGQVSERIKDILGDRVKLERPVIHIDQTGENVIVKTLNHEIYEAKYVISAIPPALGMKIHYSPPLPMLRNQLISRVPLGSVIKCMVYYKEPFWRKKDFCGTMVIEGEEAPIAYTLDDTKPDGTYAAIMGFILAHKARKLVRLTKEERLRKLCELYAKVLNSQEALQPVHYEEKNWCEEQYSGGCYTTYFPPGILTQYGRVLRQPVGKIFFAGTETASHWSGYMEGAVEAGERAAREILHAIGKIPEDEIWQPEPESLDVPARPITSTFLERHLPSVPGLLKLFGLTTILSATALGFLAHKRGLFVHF
T3 sequence (Q64133 whole entry): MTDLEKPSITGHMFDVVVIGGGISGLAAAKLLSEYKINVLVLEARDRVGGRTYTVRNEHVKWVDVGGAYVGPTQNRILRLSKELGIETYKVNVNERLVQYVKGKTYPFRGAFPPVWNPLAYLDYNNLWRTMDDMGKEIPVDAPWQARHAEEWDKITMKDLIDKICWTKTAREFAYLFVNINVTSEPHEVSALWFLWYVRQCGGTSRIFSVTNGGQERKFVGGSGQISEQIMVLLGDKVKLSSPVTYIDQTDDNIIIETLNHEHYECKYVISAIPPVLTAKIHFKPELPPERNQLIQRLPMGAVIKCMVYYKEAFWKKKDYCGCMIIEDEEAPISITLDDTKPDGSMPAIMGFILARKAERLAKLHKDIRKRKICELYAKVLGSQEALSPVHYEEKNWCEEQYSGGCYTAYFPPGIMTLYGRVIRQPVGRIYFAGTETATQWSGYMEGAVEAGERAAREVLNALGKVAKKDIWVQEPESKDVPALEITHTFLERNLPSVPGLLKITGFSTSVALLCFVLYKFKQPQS

Cc1cc(C)c2c(c1O)C(=O)O[C@H](C)C2
Ratio IC50 (Homo sapiens): > 13 | pIC50 [1]: 5.42 | pIC50 [2]: < 4.30

Cc1cc(-c2ccc(C(F)(F)F)cc2)c(O)c2c1C[C@@H](C)OC2=O
Ratio IC50 (Homo sapiens): 0.1 | pIC50 [1]: 4.86 | pIC50 [2]: 6.00

Cc1cc(-c2cncnc2)c(O)c2c1C[C@@H](C)OC2=O
inhibition (INH) [3]: Active | Ratio IC50 (Homo sapiens): > 350 | pIC50 [1]: 6.85 | inhibition (INH) [4]: Active | pIC50 [2]: < 4.30 | inhibition (INH) [5]: Active

CCCc1cc(C)c2c(c1O)C(=O)O[C@H](C)C2
Ratio IC50 (Homo sapiens): > 11 | pIC50 [1]: 5.35 | pIC50 [2]: < 4.30

COc1ccc(C)c2c1C(=O)O[C@@H](C)C2
pIC50 [1]: < 4.30 | pIC50 [2]: < 4.30

CCc1cc(C)c2c(c1O)C(=O)O[C@H](C)C2
Ratio IC50 (Homo sapiens): > 17 | pIC50 [1]: 5.54 | pIC50 [2]: < 4.30

C[C@@H]1Cc2cccc(O)c2C(=O)O1 [(-)-(R)-MELLEIN]
Ratio IC50 (Homo sapiens): 8.1 | pIC50 [1]: 5.21 | pIC50 [2]: 4.30

Cc1cc(C(=O)NCCN2CCOCC2)c(O)c2c1C[C@@H](C)OC2=O
pIC50 [1]: < 4.30 | pIC50 [2]: < 4.30

Cc1cc(C(=O)O)c(O)c2c1C[C@@H](C)OC2=O
pIC50 [1]: < 4.30 | pIC50 [2]: < 4.30

Cc1cc(-c2cccc([N+](=O)[O-])c2)c(O)c2c1C[C@@H](C)OC2=O
Ratio IC50 (Homo sapiens): > 17 | pIC50 [1]: 5.52 | pIC50 [2]: < 4.30

C[C@@H]1Cc2c(O)ccc(O)c2C(=O)O1
Ratio IC50 (Homo sapiens): > 2.9 | pIC50 [1]: 4.77 | pIC50 [2]: < 4.30

C[C@H]1Cc2cccc(O)c2C(=O)O1
Ratio IC50 (Homo sapiens): 3.2 | pIC50 [1]: 5.12 | pIC50 [2]: 4.62

Cc1cc(CO)c(O)c2c1C[C@@H](C)OC2=O
Ratio IC50 (Homo sapiens): > 2.6 | pIC50 [1]: 4.72 | pIC50 [2]: < 4.30

COc1ccc(NCc2cc(C)c3c(c2O)C(=O)O[C@H](C)C3)cc1
Ratio IC50 (Homo sapiens): > 11 | pIC50 [1]: 5.36 | pIC50 [2]: < 4.30

C[C@@H]1Cc2c(CO)ccc(O)c2C(=O)O1
pIC50 [1]: < 4.30 | pIC50 [2]: < 4.30

Cc1ccc(O)c2c1CC(C)(C)OC2=O
pIC50 [1]: < 4.30 | pIC50 [2]: < 4.30

CCCCc1cc(C)c2c(c1O)C(=O)O[C@H](C)C2
Ratio IC50 (Homo sapiens): > 2.7 | pIC50 [1]: 4.74 | pIC50 [2]: < 4.30

CC[C@@H]1Cc2c(C)ccc(O)c2C(=O)O1
Ratio IC50 (Homo sapiens): > 6.2 | pIC50 [1]: 5.10 | pIC50 [2]: < 4.30

Cc1ccc(O)c2c1C[C@@H](C)OC2=O
IC50 (Monoamine oxidase): 1.06 µM | Ratio IC50 (Homo sapiens): 8.3 | pIC50 [1]: 5.34 | pIC50 [2]: 4.41

Cc1cc(C(=O)N2CCN(C)CC2)c(O)c2c1C[C@@H](C)OC2=O
pIC50 [1]: < 4.30 | pIC50 [2]: < 4.30

Cc1cc(Br)c(O)c2c1C[C@@H](C)OC2=O
Ratio IC50 (Homo sapiens): > 1.7 | pIC50 [1]: 4.54 | pIC50 [2]: < 4.30

Cc1cc([N+](=O)[O-])c(O)c2c1C[C@@H](C)OC2=O
Ratio IC50 (Homo sapiens): > 3.1 | pIC50 [1]: 4.80 | pIC50 [2]: < 4.30

C[C@@H]1Cc2c(C(=O)O)ccc(O)c2C(=O)O1
pIC50 [1]: < 4.30 | pIC50 [2]: < 4.30

Cc1cc(Cl)c(O)c2c1C[C@@H](C)OC2=O
Ratio IC50 (Homo sapiens): > 22 | pIC50 [1]: 5.66 | pIC50 [2]: < 4.30

Cc1cc(-c2ccc(N)cc2)c(O)c2c1C[C@@H](C)OC2=O
Ratio IC50 (Homo sapiens): 26 | pIC50 [1]: 6.10 | pIC50 [2]: 4.68

Cc1cc(-c2cccc(N)c2)c(O)c2c1C[C@@H](C)OC2=O
inhibition (INH) [3]: Active | Ratio IC50 (Homo sapiens): > 250 | pIC50 [1]: 6.70 | inhibition (INH) [4]: Active | pIC50 [2]: < 4.30 | inhibition (INH) [5]: Active

COc1cccc2c1C(=O)O[C@H](C)C2
pIC50 [1]: < 4.30 | pIC50 [2]: < 4.30

Cc1cc(-c2ccccn2)c(O)c2c1C[C@@H](C)OC2=O
Ratio IC50 (Homo sapiens): > 24 | pIC50 [1]: 5.68 | pIC50 [2]: < 4.30

Cc1cc(I)c(O)c2c1C[C@@H](C)OC2=O
Ratio IC50 (Homo sapiens): > 3.1 | pIC50 [1]: 4.80 | pIC50 [2]: < 4.30

C=CC(=O)Nc1cc(C)c2c(c1O)C(=O)O[C@H](C)C2
pIC50 [1]: < 4.30 | pIC50 [2]: < 4.30

Cc1ccc(-c2cc(C)c3c(c2O)C(=O)O[C@H](C)C3)cc1
Ratio IC50 (Homo sapiens): 0.3 | pIC50 [1]: 4.91 | pIC50 [2]: 5.39

CCc1ccc(O)c2c1C[C@@H](C)OC2=O
Ratio IC50 (Homo sapiens): < 0.3 | pIC50 [1]: < 4.30 | pIC50 [2]: 4.79

Cc1cc(-c2ccc(O)cc2)c(O)c2c1C[C@@H](C)OC2=O
Ratio IC50 (Homo sapiens): 38 | pIC50 [1]: 5.96 | pIC50 [2]: 4.41

Cc1cc(N(C)C)c(O)c2c1C[C@@H](C)OC2=O
Ratio IC50 (Homo sapiens): > 3.6 | pIC50 [1]: 4.87 | pIC50 [2]: < 4.30

Cc1cc(C(=O)N2CCOCC2)c(O)c2c1C[C@@H](C)OC2=O
pIC50 [1]: < 4.30 | pIC50 [2]: < 4.30

CCN(CC)C(=O)c1cc(C)c2c(c1O)C(=O)O[C@H](C)C2
pIC50 [1]: < 4.30 | pIC50 [2]: < 4.30

Cc1cc(-c2ccncc2)c(O)c2c1C[C@@H](C)OC2=O
Ratio IC50 (Homo sapiens): > 18 | pIC50 [1]: 5.57 | pIC50 [2]: < 4.30

CC[C@@H]1Cc2c(C)cc(-c3ccc(N)cc3)c(O)c2C(=O)O1
Ratio IC50 (Homo sapiens): > 167 | pIC50 [1]: 6.52 | pIC50 [2]: < 4.30

Cc1cc(-c2cccnc2)c(O)c2c1C[C@@H](C)OC2=O
inhibition (INH) [3]: Active | Ratio IC50 (Homo sapiens): > 250 | pIC50 [1]: 6.70 | inhibition (INH) [4]: Active | pIC50 [2]: < 4.30 | inhibition (INH) [5]: Active

Cc1cc(C#N)c(O)c2c1C[C@@H](C)OC2=O
pIC50 [1]: < 4.30 | pIC50 [2]: < 4.30

Cc1ccc(O)c2c1C[C@H](C)OC2=O
Ratio IC50 (Homo sapiens): 10 | pIC50 [1]: 5.39 | pIC50 [2]: 4.39

Cc1ccc(O)c2c1CCOC2=O
Ratio IC50 (Homo sapiens): 1.7 | pIC50 [1]: 5.49 | pIC50 [2]: 5.26

Cc1cc(-c2ccccc2)c(O)c2c1C[C@@H](C)OC2=O
Ratio IC50 (Homo sapiens): 0.1 | pIC50 [1]: 4.98 | pIC50 [2]: 6.00

Cc1cc(N)c(O)c2c1C[C@@H](C)OC2=O
Ratio IC50 (Homo sapiens): > 11 | pIC50 [1]: 5.39 | pIC50 [2]: < 4.30

COc1ccc(C)c2c1C(=O)O[C@H](C)C2
pIC50 [1]: < 4.30 | pIC50 [2]: < 4.30

Cc1cc(C(=O)N(C)C)c(O)c2c1C[C@@H](C)OC2=O
pIC50 [1]: < 4.30 | pIC50 [2]: < 4.30

Cc1cc2cccc(O)c2c(=O)o1
Ratio IC50 (Homo sapiens): > 2 | pIC50 [1]: 4.63 | pIC50 [2]: < 4.30
